In patent US11980633B2, “Method for treating cancer using a combination of DNA-damaging agents and DNA-PK inhibitors” (Vertex Pharmaceuticals Incorporated, priority 2016, dated 2024):

How the values were obtained:
Type in all cases: cell-based
[1] = system: primary human tumors (esophageal, gastric); assay: TCA: Compound B-1 with paclitaxel, primary tumors
Description: (§1) In both studies, cell viability was assessed after 6 days in culture. Statistical analysis of the combination matrix was performed to assess whether synergy, additivity, or antagonism of the combination treatments were observed.
(§2) Materials: Primary patient samples (See Tables 16 and 17, below) were excised from mice when they reached 500 mg to 1000 mg in size and processed immediately, or after overnight shipment. Tumors were serially passaged by subcutaneous implantation of 50 mg to 150 mg fragments into the flanks of immunocompromised (nude) mice. Tumors were used within the first 5 or 7 passages.
(§3) Tumor Chemosensitivity Assay (TCA): Primary tumor samples were grown and serially passaged in immunocompromised mice. Tumors were mechanically dissociated into small fragments (1 mm to 2 mm) with scalpels in phosphate buffered saline (PBS or RPMI) and centrifuged at 200×g for 5 minutes at room temperature in 50 mL centrifuge tubes. Samples were resuspended in 10 mL of cell dissociation reagent and enzymatically digested with mechanical agitation for 1 to 3 hours at 37° C., 5% CO2 to a single cell suspension. Ten mL of complete RPMI-1640 media was added to the cell mixture and pipetted up and down 4 to 5 times. The mixture was then passed through a 70 μm or 100 μm mesh strainer to remove undigested tumor. The filtrate was then centrifuged 200×g for 5 minutes at room temperature and resuspended in 20 mL complete RPMI-1640. This cell suspension was slowly layered onto 20 mL of room temperature Histopaque and centrifuged at 400×g for 15 minutes at room temperature without a brake. The interface was transferred to a new 50 mL centrifuge tube and 15 mL of complete RPMI-1640 was added. This suspension was centrifuged at 200×g at room temperature, and the resulting pellet was resuspended in 10 mL of complete PC-1 media, except for pancreatic tumors in which case Pancreatic Medium was used. Cells were diluted in Trypan blue, and viable cells that excluded the dye were counted. Only the larger, tumor cells were included in the cell count. Cells were diluted in complete PC-1 or Pancreatic media, as appropriate for the cells, and were plated at 15,000 to 20,000 cells per well in 100-135 μL in ultra-low attachment U-bottom plates.
(§4) Compound Addition: For these studies, a 10 mM stock of the DNA-PK inhibitor (Compound B-1 or Compound B-2) was made in DMSO and used to add to cells from most tumors with HP D300 Digital Dispenser (Tecan US, Morrisville, NC, USA), or diluted into the appropriate media (PC-1 or pancreatic media) as a 5-10× stock and added to cells (OVX001 and ENX001, 005). PC-1, pancreatic media, and chemotherapeutics were also added so that final well volume was 150 μL. Doxorubicin was made as DMSO stock of 1 or 10 mM and added to cells for most tumors with HP D300 Digital Dispenser, or diluted into PC-1 as 5-10× stock and added to cells (OVX001 and ENX001, 005). Cisplatin (cis-diammine platinum(II), dichloride) was prepared fresh to 10 mM in warm (60° C.) distilled water and diluted in PC-1 as a 5-10× stock. […] Different starting concentrations, dose ranges, and number of doses were used for each experiment based on the response data available at the time.
(§5) For bleomycin experiments, combinations with Compound B-1 at all concentrations were run in triplicate. A 6×3 matrix was designed on one plate, consisting of a 2-point concentration range of 0.73 μM and 2.2 μM Compound B-1 plus no treatment control, in 3 columns each of 6 wells. Bleomycin (plus ‘no treatment’ control) was added to 9 wells in rows of this plate. Similar 6×3 matrices were set up for additional agents with different starting concentrations for compound dilutions. For cisplatin experiments the starting concentration was 30 μM which was diluted 1:3. […] For doxorubicin hydrochloride experiments the starting concentration was 5 μM doxorubicin which was diluted 1:3. For gemcitabine experiments the starting concentration was 5 μM gemcitabine which was diluted 1:3. […]

[2] = system: primary human tumors (NSCLC, SCLC); assay: TCA: Compound B-1 with etoposide, primary lung tumors
Description: as §1, §2, §3, §4, §5

[3] = system: primary human pancreatic tumors; assay: TCA: Compound B-1 with gemcitabine, primary pancreatic tumors
Description: as §1, §2, §3, §4, §5

[4] = system: primary human tumors (NSCLC, esophageal, gastric); assay: TCA: Compound B-1 with cisplatin, primary tumors; set-up: Average Bliss score: scale not given here
Description: as §1, §2, §3, §4, §5

CNC(=O)c1ccnc2c([C@H](C)CNc3cc(-c4cnc(C)nc4)ncn3)cccc12 [Compound B-1]
tumors that showed additivity ([1]; four of 5 tumors): 80% | tumors that showed antagonism ([1]; one of 5 tumors): 20% | Average Bliss score ([1]; tumor ESX005, Esophageal): −3 | Synergy/Additivity/Antagonism ([1]; tumor ESX005, Esophageal): Additive (Values between 5 and −5 are considered additive) | Average Bliss score ([1]; tumor ESX008, Esophageal): −5 | Synergy/Additivity/Antagonism ([1]; tumor ESX008, Esophageal): Antagonistic (less than −5 are considered antagonistic) | Average Bliss score ([1]; tumor GAX001, Gastric): −1 | Synergy/Additivity/Antagonism ([1]; tumor GAX001, Gastric): Additive (Values between 5 and −5 are considered additive) | Average Bliss score ([1]; tumor GAX007, Gastric): −4 | Synergy/Additivity/Antagonism ([1]; tumor GAX007, Gastric): Additive (Values between 5 and −5 are considered additive) | Average Bliss score ([1]; tumor GAX027, Gastric): 1 | Synergy/Additivity/Antagonism ([1]; tumor GAX027, Gastric): Additive (Values between 5 and −5 are considered additive) | tumors that showed strong synergy [2]: 100% | Average Bliss score ([2]; tumor LUX013, Lung (SCLC)): 15 | Synergy/Additivity/Antagonism ([2]; tumor LUX013, Lung (SCLC)): Strongly Synergistic (greater than 10 are considered strongly synergistic) | Average Bliss score ([2]; tumor LUX031, Lung (SCLC)): 16 | Synergy/Additivity/Antagonism ([2]; tumor LUX031, Lung (SCLC)): Strongly Synergistic (greater than 10 are considered strongly synergistic) | Average Bliss score ([2]; tumor OD26749, Lung (NSCLC)): 19 | Synergy/Additivity/Antagonism ([2]; tumor OD26749, Lung (NSCLC)): Strongly Synergistic (greater than 10 are considered strongly synergistic) | Average Bliss score ([2]; tumor OD29498, Lung (NSCLC)): 13 | Synergy/Additivity/Antagonism ([2]; tumor OD29498, Lung (NSCLC)): Strongly Synergistic (greater than 10 are considered strongly synergistic) | tumors that showed additivity ([3]; 2 of 4 pancreatic tumors): 50% | tumors that showed antagonism ([3]; 2 of 4 pancreatic tumors): 50% | Average Bliss score ([3]; tumor P110325, Pancreatic): −9 | Synergy/Additivity/Antagonism ([3]; tumor P110325, Pancreatic): Antagonistic (less than −5 are considered antagonistic) | Average Bliss score ([3]; tumor P110413, Pancreatic): −1 | Synergy/Additivity/Antagonism ([3]; tumor P110413, Pancreatic): Additive (Values between 5 and −5 are considered additive) | Average Bliss score ([3]; tumor P110504, Pancreatic): −6 | Synergy/Additivity/Antagonism ([3]; tumor P110504, Pancreatic): Antagonistic (less than −5 are considered antagonistic) | Average Bliss score ([3]; tumor P110603, Pancreatic): −2 | Synergy/Additivity/Antagonism ([3]; tumor P110603, Pancreatic): Additive (Values between 5 and −5 are considered additive) | tumors that showed additivity or synergy ([4]; nine of 10 tumors): 90% | tumors that demonstrated antagonism ([4]; one of 10 tumors): 10% | Average Bliss score ([4]; tumor ESX005, Esophageal): 2 | Synergy/Additivity/Antagonism ([4]; tumor ESX005, Esophageal): Additive (Values between 5 and −5 are considered additive) | Average Bliss score ([4]; tumor ESX008, Esophageal): 1 | Synergy/Additivity/Antagonism ([4]; tumor ESX008, Esophageal): Additive (Values between 5 and −5 are considered additive) | Average Bliss score ([4]; tumor GAX001, Gastric): 14 | Synergy/Additivity/Antagonism ([4]; tumor GAX001, Gastric): Strongly Synergistic (greater than 10 are considered strongly synergistic) | Average Bliss score ([4]; tumor GAX007, Gastric): 2 | Synergy/Additivity/Antagonism ([4]; tumor GAX007, Gastric): Additive (Values between 5 and −5 are considered additive) | Average Bliss score ([4]; tumor GAX027, Gastric): −3 | Synergy/Additivity/Antagonism ([4]; tumor GAX027, Gastric): Additive (Values between 5 and −5 are considered additive) | Average Bliss score ([4]; tumor OD33117, Lung (NSCLC)): 6 | Synergy/Additivity/Antagonism ([4]; tumor OD33117, Lung (NSCLC)): Synergistic (greater than 5 are considered synergistic) | Average Bliss score ([4]; tumor OD33966, Lung (NSCLC)): −1 | Synergy/Additivity/Antagonism ([4]; tumor OD33966, Lung (NSCLC)): Additive (Values between 5 and −5 are considered additive) | Average Bliss score ([4]; tumor OD36088, Lung (NSCLC)): 6 | Synergy/Additivity/Antagonism ([4]; tumor OD36088, Lung (NSCLC)): Synergistic (greater than 5 are considered synergistic) | Average Bliss score ([4]; tumor TS110310, Lung (NSCLC)): −3 | Synergy/Additivity/Antagonism ([4]; tumor TS110310, Lung (NSCLC)): Additive (Values between 5 and −5 are considered additive) | Average Bliss score ([4]; tumor YAS111611, Lung (NSCLC)): −6 | Synergy/Additivity/Antagonism ([4]; tumor YAS111611, Lung (NSCLC)): Antagonistic (less than −5 are considered antagonistic)
